For one assay, the system named is HuT78. As to the kind of experiment: cells. Type of assay: functional. The settings on record: Homo sapiens, HuT78, 72 h.
The test system of a further assay is U-937. As to the kind of experiment: cells. Type of assay: functional. The settings on record: Homo sapiens, U-937, 72 h.
The subject of the next assay is HCT-116. As to the kind of experiment: cells. It counts as functional. As to conditions: Homo sapiens, HCT-116, 72 h.
Assay [1] deals with HeLa. Nature of the assay: cells. It counts as functional. As to conditions: Homo sapiens, 72 h.
Description: Growth inhibition of human HeLa cells after 72 hrs by SRB assay
The target in the next assay is Histone deacetylase. As to the kind of experiment: Inhibition of HDAC in human HeLa cell nuclear extracts by fluorimetric assay. Type of assay: protein assay.
Assay [2] concerns HeLa. Nature of the assay: Growth inhibition of human HeLa cells at 10 uM after 72 hrs by SRB assay. It counts as functional. The settings on record: read-out: GI. For orientation: In SRB staining, fixed cells bind dye roughly in proportion to their protein.

Consider 5 molecules from ChEMBL document CHEMBL1268928, “Design and synthesis of novel pyrimidine hydroxamic acid inhibitors of histone deacetylases” (Bioorg Med Chem Lett, 2010).

Description for HCT-116: Growth inhibition of human HCT116 cells after 72 hrs by SRB assay
Description for HuT78: Growth inhibition of human HUT78 cells after 72 hrs by SRB assay
Description for U-937: Growth inhibition of human U937 cells after 72 hrs by SRB assay

The term GI50 denotes the concentration at which growth is held to half of that of the control. A higher GI50 goes with lower sensitivity of the cells. The IC50 is the concentration that inhibits the measured activity by half. Low values mean greater potency in that assay, high ones weaker potency in that assay. Regarding `O=C(NO)c1ccc(N2C[C@H]3CN(Cc4ccc5ccccc5c4)C[C@H]3C2)nc1`, the GI50 with HuT78 came to 0.34 µM; with U-937, 0.45 µM; with HCT-116 it was 0.7 µM; with HeLa [1] it was 1.26 µM. The same molecule showed an IC50 against Histone deacetylase of 0.045 µM.

Take `O=C(NO)c1cnc(N2C[C@@H]3CN(S(=O)(=O)c4cc(C(F)(F)F)cc(C(F)(F)F)c4)C[C@@H]3C2)nc1`: the figures for the concentration for 50% growth inhibition (GI50) with HuT78, in the assay with U-937 and in the assay on HCT-116 were 0.7 µM, 1.25 µM and 1.7 µM, respectively. The molecule also displayed a concentration for half-maximal inhibition (IC50) against Histone deacetylase of 0.433 µM. The inhibition of growth at 10 µM in the assay on HeLa [2] came out at 42%.

Regarding `O=C(NO)c1cnc(N2C[C@@H]3CN(S(=O)(=O)c4ccc(OC(F)(F)F)cc4)C[C@@H]3C2)nc1`, the GI50 was 0.5 µM with HuT78, 0.98 µM in the assay with U-937, 0.53 µM in the assay with HCT-116 and 0.94 µM in the assay with HeLa [1]. The half-maximal inhibitory concentration (IC50) at Histone deacetylase stood at 0.123 µM.

For `O=C(NO)c1cnc(N2C[C@H]3CN(C(=O)c4ccc5ccccc5c4)C[C@H]3C2)nc1`, the GI50 with HuT78 stood at 0.2 µM; in the assay with U-937 it was 0.39 µM; in the assay with HCT-116, 0.59 µM; with HeLa [1], 0.21 µM. The molecule also had a concentration for half-maximal inhibition (IC50) against Histone deacetylase of 0.012 µM.

`O=C(NO)c1cnc(N2C[C@H]3CN(C(=O)CCCOc4ccccc4)C[C@H]3C2)nc1`: the GI50 with HuT78 came to 0.8 µM; with U-937, 0.9 µM; with HCT-116, 1.8 µM; in the assay on HeLa [1], 3.95 µM. At Histone deacetylase, this molecule displayed an IC50 of 0.122 µM.
